Active and inactive are the calls of the source.

For experiment [1], the target named is T1, Endoribonuclease toxin MazF (Escherichia coli K-12, UniProt P0AE70).
T1 sequence (P0AE70 whole entry): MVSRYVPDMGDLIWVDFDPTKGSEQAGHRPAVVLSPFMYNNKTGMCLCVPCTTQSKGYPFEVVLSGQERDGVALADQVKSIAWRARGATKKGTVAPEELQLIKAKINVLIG
In words: substrate-only fluorescence increase artefacts – biochemical, single-stranded RNase substrate, counter-screen for MazEF activator project, dose response (AID 588502). It is filed as functional.

Experiment [2] deals with T1, Endoribonuclease toxin MazF. In words: activation of MazEF endoribonuclease cleavage – biochemical, fluorescence, single-stranded RNA substrate, uHTS hits, dose response (AID 588481). The experiment is classed as functional.
The next experiment deals with T2, Leucine aminopeptidase (Plasmodium falciparum 3D7, UniProt Q8IL11).
T2 sequence (Q8IL11 whole entry): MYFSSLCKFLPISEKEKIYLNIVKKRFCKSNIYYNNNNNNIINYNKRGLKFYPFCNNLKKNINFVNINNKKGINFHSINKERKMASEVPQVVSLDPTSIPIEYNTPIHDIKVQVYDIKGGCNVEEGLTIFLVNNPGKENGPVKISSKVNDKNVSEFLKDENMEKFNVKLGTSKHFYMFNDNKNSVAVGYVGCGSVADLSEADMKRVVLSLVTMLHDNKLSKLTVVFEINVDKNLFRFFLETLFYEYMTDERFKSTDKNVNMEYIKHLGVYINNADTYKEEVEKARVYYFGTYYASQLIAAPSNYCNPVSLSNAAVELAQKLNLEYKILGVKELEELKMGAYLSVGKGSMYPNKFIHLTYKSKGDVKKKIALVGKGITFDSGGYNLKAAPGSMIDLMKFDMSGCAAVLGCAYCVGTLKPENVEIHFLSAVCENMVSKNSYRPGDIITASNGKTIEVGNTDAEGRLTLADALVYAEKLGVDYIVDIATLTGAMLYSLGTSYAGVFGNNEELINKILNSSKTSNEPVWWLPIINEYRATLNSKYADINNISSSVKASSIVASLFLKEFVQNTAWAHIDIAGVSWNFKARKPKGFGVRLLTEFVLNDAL
In words: P. falciparum M17LAP inhibitors, primary screen, biochemical, fluorogenic H-Leu-NHMec substrate, 1536-well (AID 1619). The experiment is classed as functional.

The target of experiment [3] is Voltage-dependent T-type calcium channel subunit alpha-1H (Homo sapiens, UniProt O95180). The experiment is classed as functional.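 Note: channel activity triggered by adding a high calcium stimulation buffer.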
In experiment [4] the test system is HEK293. In words: cells. Conditions: Homo sapiens. The experiment is classed as functional, cell-based.
Experiment [5] deals with HEK293. In words: cells. The experiment is classed as functional, cell-based. The following applies: Homo sapiens. The source holds these as a separate data set.
Experiment [6] concerns HEK293. In words: NOD2 signaling inhibitors in MDP-stimulated cells, cell-based, uHTS, luminescence (AID 2001). The following applies: Homo sapiens. The experiment is classed as functional.
The nature of experiment [7]: cells. The experiment is classed as functional, cell-based.
Experiment [8] is described as follows: cells. The experiment is classed as functional, cell-based. The source holds these as a separate data set.
For a further experiment, the target named is Large T antigen (Simian virus 40, UniProt P03070). It is filed as functional, Betapolyomavirus macacae.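 Note: Confirmatory-stage PubChem screen for compounds that inhibit SV40 T antigen.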
The target in the next experiment is T3, Cytochrome P450 1A2 (Homo sapiens, UniProt P05177).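 Note: PubChem cytochrome P450 panel assay, CYP1A2 panel member.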
T3 sequence (P05177 whole entry): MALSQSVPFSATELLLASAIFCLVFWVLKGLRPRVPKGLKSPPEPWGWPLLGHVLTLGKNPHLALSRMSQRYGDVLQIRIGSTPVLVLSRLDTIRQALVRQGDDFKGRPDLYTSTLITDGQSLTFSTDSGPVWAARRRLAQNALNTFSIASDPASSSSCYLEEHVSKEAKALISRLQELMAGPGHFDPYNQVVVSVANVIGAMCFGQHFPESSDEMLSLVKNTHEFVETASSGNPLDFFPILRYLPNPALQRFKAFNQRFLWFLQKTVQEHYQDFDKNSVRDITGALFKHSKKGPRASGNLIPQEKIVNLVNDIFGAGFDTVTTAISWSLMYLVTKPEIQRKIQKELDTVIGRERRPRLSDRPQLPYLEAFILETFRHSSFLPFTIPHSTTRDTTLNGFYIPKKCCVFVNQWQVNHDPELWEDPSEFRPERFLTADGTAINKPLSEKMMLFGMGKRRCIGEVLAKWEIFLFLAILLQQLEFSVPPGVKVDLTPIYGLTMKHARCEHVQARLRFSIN

Experiment [9] deals with BJ. In words: BJ-TERT fibroblast viability loss – cell-based, RAS-independent, luminescence, dose response (AID 1933). The experiment is classed as functional. Conditions: Homo sapiens.
Experiment [10] has as its system BJ. In words: BJ-TERT-LT-ST fibroblast viability loss – cell-based, RAS-independent, luminescence, dose response (AID 1935).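 Note: BJ fibroblasts immortalized with TERT plus LT and ST oncogenes.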 It is filed as functional. The following applies: Homo sapiens.
Experiment [11] has as its system BJ. In words: cells. The experiment is classed as functional, cell-based. The following applies: Homo sapiens.
Experiment [12] is described as follows: DRD fibroblast viability loss – cell-based, non-viral oncogenic, luminescence, dose response (AID 1934). The experiment is classed as functional. The following applies: Homo sapiens.
In another experiment the target is Genome polyprotein (dengue virus type 2, UniProt P29990). In words: flavivirus cap methylation enzyme inhibition – biochemical, confirmation dose response, primary screen (AID 588689). It is filed as functional.
Sequence of Genome polyprotein (P29990 2492-3391 limits assumed): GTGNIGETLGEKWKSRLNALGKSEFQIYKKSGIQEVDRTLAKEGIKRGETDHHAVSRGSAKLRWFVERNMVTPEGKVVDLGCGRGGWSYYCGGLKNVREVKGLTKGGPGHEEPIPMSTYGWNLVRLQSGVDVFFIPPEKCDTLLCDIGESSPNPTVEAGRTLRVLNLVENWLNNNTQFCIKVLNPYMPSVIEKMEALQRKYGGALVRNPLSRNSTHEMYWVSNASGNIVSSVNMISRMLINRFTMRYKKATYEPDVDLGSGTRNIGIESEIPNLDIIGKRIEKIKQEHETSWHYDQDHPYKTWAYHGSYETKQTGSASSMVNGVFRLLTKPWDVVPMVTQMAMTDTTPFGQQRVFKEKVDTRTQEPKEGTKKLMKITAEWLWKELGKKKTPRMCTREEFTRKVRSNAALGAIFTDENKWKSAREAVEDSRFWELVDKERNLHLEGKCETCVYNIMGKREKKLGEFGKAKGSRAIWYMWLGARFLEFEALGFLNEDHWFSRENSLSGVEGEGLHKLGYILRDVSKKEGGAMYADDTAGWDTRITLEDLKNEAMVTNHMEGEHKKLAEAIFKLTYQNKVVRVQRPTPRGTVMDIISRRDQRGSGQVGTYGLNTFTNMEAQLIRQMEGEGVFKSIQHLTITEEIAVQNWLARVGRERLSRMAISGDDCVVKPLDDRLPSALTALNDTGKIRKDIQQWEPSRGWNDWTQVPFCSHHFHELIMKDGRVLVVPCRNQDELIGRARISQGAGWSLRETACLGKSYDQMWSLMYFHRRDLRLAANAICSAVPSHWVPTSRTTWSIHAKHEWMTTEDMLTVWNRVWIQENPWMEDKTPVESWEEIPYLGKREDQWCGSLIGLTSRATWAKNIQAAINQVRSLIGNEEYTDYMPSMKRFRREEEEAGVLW

Sequence of Large T antigen (P03070 whole entry): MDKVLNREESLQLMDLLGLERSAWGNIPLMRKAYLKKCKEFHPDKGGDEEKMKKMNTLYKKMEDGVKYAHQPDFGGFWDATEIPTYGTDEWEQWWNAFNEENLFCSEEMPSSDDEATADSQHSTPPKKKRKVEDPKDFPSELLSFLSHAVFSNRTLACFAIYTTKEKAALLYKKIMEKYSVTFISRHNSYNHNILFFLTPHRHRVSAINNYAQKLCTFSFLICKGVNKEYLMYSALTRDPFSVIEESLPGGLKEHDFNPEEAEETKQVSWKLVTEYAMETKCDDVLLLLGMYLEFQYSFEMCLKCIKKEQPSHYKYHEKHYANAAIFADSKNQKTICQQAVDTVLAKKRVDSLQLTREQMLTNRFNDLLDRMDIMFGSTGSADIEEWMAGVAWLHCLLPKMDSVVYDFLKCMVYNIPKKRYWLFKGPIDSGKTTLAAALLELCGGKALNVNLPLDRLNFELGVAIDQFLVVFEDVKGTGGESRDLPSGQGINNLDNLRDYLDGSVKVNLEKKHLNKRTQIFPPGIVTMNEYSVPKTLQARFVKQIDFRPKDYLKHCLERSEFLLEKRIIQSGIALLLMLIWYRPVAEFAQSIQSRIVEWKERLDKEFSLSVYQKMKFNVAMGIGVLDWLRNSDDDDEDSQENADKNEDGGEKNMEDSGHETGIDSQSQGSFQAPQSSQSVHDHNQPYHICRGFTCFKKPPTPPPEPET
Sequence of Voltage-dependent T-type calcium channel subunit alpha-1H (O95180 whole entry): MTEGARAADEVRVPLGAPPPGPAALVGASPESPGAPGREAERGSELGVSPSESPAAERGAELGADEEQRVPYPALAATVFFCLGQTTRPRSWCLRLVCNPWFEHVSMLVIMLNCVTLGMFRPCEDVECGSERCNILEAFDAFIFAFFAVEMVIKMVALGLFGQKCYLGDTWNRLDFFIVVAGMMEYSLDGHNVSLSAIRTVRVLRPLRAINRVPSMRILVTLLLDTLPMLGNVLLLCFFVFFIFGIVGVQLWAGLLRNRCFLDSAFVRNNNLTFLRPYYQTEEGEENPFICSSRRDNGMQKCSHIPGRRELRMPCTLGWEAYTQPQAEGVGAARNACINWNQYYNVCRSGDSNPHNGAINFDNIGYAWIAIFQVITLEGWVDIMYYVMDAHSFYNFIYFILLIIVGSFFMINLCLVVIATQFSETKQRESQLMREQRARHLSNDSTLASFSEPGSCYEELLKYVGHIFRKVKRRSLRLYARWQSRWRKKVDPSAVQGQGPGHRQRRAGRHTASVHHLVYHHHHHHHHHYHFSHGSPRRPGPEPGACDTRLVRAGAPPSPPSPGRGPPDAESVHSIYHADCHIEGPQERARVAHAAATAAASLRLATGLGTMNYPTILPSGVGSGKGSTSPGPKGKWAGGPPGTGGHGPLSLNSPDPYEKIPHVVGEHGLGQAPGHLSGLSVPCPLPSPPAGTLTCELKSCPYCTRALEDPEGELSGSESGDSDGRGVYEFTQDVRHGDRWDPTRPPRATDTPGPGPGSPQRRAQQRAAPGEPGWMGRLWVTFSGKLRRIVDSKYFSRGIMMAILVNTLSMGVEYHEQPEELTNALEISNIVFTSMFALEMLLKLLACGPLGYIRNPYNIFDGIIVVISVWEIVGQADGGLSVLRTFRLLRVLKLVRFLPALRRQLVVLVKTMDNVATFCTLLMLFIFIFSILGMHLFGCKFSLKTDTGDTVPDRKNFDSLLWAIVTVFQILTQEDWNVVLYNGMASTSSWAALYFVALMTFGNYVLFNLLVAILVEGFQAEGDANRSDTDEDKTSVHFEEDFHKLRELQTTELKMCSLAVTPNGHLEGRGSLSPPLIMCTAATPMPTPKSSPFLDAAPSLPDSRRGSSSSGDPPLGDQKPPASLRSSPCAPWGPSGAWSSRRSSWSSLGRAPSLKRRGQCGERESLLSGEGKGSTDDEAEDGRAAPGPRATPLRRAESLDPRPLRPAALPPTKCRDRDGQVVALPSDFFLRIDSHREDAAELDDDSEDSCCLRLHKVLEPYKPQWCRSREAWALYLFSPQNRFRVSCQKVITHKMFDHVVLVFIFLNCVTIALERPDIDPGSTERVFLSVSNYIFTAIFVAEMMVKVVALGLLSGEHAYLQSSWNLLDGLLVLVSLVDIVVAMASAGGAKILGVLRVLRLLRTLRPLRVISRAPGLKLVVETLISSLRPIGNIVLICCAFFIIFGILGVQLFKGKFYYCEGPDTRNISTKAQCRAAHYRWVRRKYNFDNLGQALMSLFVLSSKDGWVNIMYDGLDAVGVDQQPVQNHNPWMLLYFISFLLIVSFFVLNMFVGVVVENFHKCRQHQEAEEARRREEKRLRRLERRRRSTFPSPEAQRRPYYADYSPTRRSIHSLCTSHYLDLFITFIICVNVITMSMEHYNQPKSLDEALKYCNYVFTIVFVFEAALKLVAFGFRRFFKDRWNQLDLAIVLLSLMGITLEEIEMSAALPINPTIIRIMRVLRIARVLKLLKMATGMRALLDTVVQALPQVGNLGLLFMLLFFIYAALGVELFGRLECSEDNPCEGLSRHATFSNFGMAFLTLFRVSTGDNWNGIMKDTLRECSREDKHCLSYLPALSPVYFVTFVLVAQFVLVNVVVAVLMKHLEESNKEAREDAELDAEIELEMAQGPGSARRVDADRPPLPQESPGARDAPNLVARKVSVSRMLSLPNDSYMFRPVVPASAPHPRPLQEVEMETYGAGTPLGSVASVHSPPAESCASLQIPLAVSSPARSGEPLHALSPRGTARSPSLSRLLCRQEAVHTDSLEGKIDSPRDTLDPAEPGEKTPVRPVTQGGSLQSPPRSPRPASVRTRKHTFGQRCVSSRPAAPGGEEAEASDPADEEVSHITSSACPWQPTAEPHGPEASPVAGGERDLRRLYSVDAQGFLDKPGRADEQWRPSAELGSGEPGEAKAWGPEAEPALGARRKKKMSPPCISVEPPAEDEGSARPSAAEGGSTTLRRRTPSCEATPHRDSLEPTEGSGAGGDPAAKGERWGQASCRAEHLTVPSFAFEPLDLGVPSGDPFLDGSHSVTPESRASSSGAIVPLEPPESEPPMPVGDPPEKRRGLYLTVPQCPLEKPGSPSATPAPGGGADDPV

For `COc1ccc(Br)c(C(=O)OCc2cc(=O)oc3cc(C)ccc23)c1`, the EC50 in experiment [1] and in experiment [2] was > 99 µM (inactive) each time.
On to `CC1CCC2(CC1)NC(=O)N(CC(=O)Nc1ccc(N3CCOCC3)cc1)C2=O` (stereo not given), for which, at Leucine aminopeptidase, the IC50 is 58.6 µM (active).
For the compound `Cc1ccc2c(CC(=O)NCC3COc4ccccc4O3)coc2c1` (stereo not given), the EC50 in experiment [3] was 0.986 µM (active).
As to `Cc1ccc(NC2SC(=O)N(Cc3cccc(C(=O)O)c3)C2=O)cc1` (stereo not given), at Leucine aminopeptidase, the IC50 is 6.86 µM (active).
Take `COc1ccccc1N1CCN(C(=O)C2CCCN(S(=O)(=O)c3ccc4c(c3)oc(=O)n4C)C2)CC1` (stereo not given): the IC50 in the experiment with HEK293 [4], in the experiment with HEK293 [5] and in the experiment on HEK293 [6] was > 20 µM (inactive) throughout.
`O=C(/C=C/c1ccc2c(c1)OCO2)Nc1cccnc1`: the EC50 in the experiment “cells [7]” was > 350 µM (not active); in “cells [8]”, 6.64 µM (active).
The matching figures for `ON=CNc1cccc2nonc12`: > 350 µM (not active) and 98.8 µM (active).
For the compound `O=C(CSCC(=O)N1CCCCC1)Nc1nc(-c2cccs2)cs1`, in experiment [3], the EC50 was 0.595 µM (active).
As for `Cc1cc(C)n2nc(C(=O)N/N=C/c3ccc(O)cc3)nc2n1`, on Large T antigen, the IC50 was 43.9 µM (active).
As for `O=C(COc1ccccc1)N(Cc1cccc(F)c1)C1CCS(=O)(=O)C1` (stereo not given), the EC50 in “cells [7]” and in “cells [8]” was > 350 µM (not active) each time.
As to `O=C(O)c1nn(Cc2ccc(Cl)cc2Cl)c2ccccc12` [LONIDAMINE], the IC50 at Leucine aminopeptidase was 7.37 µM (active). Also, at Cytochrome P450 1A2, the AC50 was 39.8 µM (inconclusive).
With `CCCn1/c(=N/C(=O)c2c(-c3c(F)cccc3Cl)noc2C)c(C(=O)OCC)cc2c(=O)n3ccccc3nc21`, the EC50 in the experiment “cells [7]” and in “cells [8]” was > 350 µM (not active) throughout.
With `CC1=C(C)CC(C(=O)NNC(=O)c2csc3c2CCC(C(C)(C)C)C3)C(C(=O)O)C1` (stereo not given), the IC50 at Leucine aminopeptidase is 8.98 µM (active).
Consider `N#Cc1c(O)nc(S)nc1-c1ccccc1`, for which, at Leucine aminopeptidase, the IC50 was 15.7 µM (active).
As for `CN(C)c1ccc(NC(=O)CSc2nnc(-c3ccco3)c(-c3ccco3)n2)cc1`, the IC50 on Large T antigen is 6.98 µM (active).
`COC(=O)CSc1cc([N+](=O)[O-])cc2c1c(C1OCCO1)nn2-c1ccccc1`: the EC50 in experiment [1] and in experiment [2] was > 99 µM (inactive) each time.
Consider `Cc1nonc1NC(=O)CSc1nnc(-c2ccoc2C)n1-c1cccc(Cl)c1`, for which, in experiment [3], the EC50 is 7.83 µM (active).
For the compound `Cc1ccccc1-c1nc(CS(=O)(=O)CC(=O)N(C)C2CCCCC2)c(C)o1`, the EC50 in experiment [3] was 1.26 µM (active).
For `COc1ccc(CSCC(=O)Nc2ccc(S(=O)(=O)N3CCCCCC3)cc2)cc1`, the EC50 in the experiment “cells [7]” and in the experiment “cells [8]” was > 350 µM (not active) each time.
For the compound `CN1CCN(c2ccc([N+](=O)[O-])cc2C(=O)c2ccccc2)CC1`, the EC50 in the experiment on BJ [9] is 39.6 µM (active); in the experiment with BJ [10] it was > 150 µM (not active); with BJ [11], > 150 µM (not active); in experiment [12], > 150 µM (not active).
Consider `NC(=O)COc1ccc(/C=C2\C(=O)ON=C2c2ccccc2)cc1`, for which the IC50 on Genome polyprotein is 67.7 µM (active).
For the compound `O=C(CCC(=O)N1CCN(c2ccc(O)cc2)CC1)c1cccs1`, the IC50 at Large T antigen is 5.54 µM (active).
As to `O=C(CCS(=O)(=O)c1ccc(Br)cc1)N1CCN(c2ccccc2Cl)CC1`, in [3], the EC50 is 4.8 µM (active).
`CCCCN1C(=O)/C(=C/C=C/C=C/Nc2ccccc2)SC1=S`: the EC50 was 31.6 µM (active) in the experiment on BJ [9], > 150 µM (not active) with BJ [10], 24.6 µM (active) in the experiment with BJ [11] and 19.8 µM (active) in experiment [12].

(Values after ChEMBL document CHEMBL1201862, “PubChem BioAssay data set” (2004).)
